Positions of bridges follow the written chain, without caps; N, C: chain ends. Non-standard residues stand in square brackets, D forms with d. Residues, ends and D or L forms follow the SMILES beside them. Ala(thiazol-5-yl) = N[C@@H](Cc1cncs1)C(=O)O; NMeNle = CCCC[C@H](NC)C(=O)O; NMeA = CN[C@@H](C)C(=O)O; Orn = NCCC[C@H](N)C(=O)O; Dab = NCC[C@H](N)C(=O)O; Dap = NC[C@H](N)C(=O)O; Sar = CNCC(=O)O
How the values were obtained:
[1] = biological target: T1, LK35.2-hPD-L1 cells / PE-labeled PD-1-Ig (Homo sapiens, UniProt Q9NZQ7); experiment: LK35.2-hPD-L1 cell binding high-content screening assay; format: cell-based; conditions: cluster symbol; cell line of CBA not given (LK35.2-hPD-L1 or 293T-hPD-L1); read-out: CBA IC50 cluster
T1 construct: expressed in transfected cells; host or cells: LK35.2 mouse B cell line
T1 sequence (Q9NZQ7 19-290): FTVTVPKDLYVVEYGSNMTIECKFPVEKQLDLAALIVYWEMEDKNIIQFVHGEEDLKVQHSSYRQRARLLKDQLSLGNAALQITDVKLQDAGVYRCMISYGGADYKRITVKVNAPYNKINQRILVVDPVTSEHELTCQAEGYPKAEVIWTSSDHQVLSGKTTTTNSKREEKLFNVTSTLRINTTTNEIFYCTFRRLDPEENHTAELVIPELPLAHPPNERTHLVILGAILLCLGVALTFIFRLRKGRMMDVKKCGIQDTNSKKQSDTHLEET
Summary of the method: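 Using overnight-cultured LK35.2-hPD-L1 mouse B cells, compound was co-incubated with phycoerythrin-tagged human PD-1-Ig (final 1 nM) at 37 °C for one hour. Unbound label was removed by triple dPBS washing prior to high-content image acquisition and analysis.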

Human PD-L1/PD-1 = biological target: T2, Human PD-L1/PD-1 (Homo sapiens, UniProt Q9NZQ7); experiment: HTRF PD-1-Ig/PD-L1-His binding assay (human PD-L1); conditions: cluster symbol; read-out: HTRF IC50 cluster
T2 construct: made in house; host or cells: HEK293T
T2 sequence (Q9NZQ7 with tags, fused parts or gaps): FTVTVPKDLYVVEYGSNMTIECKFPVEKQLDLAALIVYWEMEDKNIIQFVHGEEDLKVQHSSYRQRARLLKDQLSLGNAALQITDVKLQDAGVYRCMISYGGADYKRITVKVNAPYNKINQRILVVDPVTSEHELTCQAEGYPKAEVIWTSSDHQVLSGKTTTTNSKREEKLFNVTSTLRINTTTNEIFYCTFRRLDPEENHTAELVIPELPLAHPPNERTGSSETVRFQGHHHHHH
Summary of the method: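 Interaction of Fc-tagged soluble PD-1 with His-tagged soluble PD-L1 is monitored by time-resolved FRET. Donor is europium cryptate anti-Ig (1 nM final) and acceptor is APC anti-His (20 nM final). Assay buffer is dPBS with 0.1% BSA and 0.05% Tween-20.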

Compound	IC50 [1] [nM]	IC50 (Human PD-L1/PD-1) [nM]
CCCC[C@H]1C(=O)N(C)[C@@H](CCCC)C(=O)N[C@@H](CCCNC(=N)N)C(=O)N[C@H](C(=O)NCC(N)=O)CSCC(=O)N[C@@H](Cc2ccccc2)C(=O)N(C)[C@@H](C)C(=O)N[C@@H](CC(N)=O)C(=O)N2CCC[C@H]2C(=O)N[C@@H](CCCN)C(=O)N[C@@H](CC(C)C)C(=O)N(C)CC(=O)N[C@@H](Cc2c[nH]c3ccccc23)C(=O)N[C@@H](CO)C(=O)N[C@@H](Cc2c[nH]c3ccccc23)C(=O)N1C [Example 1059] ({CH2CO}-F[NMeA]NP[Orn]L[Sar]WSW[NMeNle][NMeNle]RCG-NH2; thioether N-14)	> 74.3	> 30.5
CCCC[C@H]1C(=O)N(C)[C@@H](CCCC)C(=O)N[C@@H](CCCNC(=N)N)C(=O)N[C@H](C(=O)NCC(N)=O)CSCC(=O)N[C@@H](Cc2ccccc2)C(=O)N(C)[C@@H](C)C(=O)N[C@@H](CC(N)=O)C(=O)N2CCC[C@H]2C(=O)N[C@@H](CN)C(=O)N[C@@H](CC(C)C)C(=O)N(C)CC(=O)N[C@@H](Cc2c[nH]c3ccccc23)C(=O)N[C@@H](CO)C(=O)N[C@@H](Cc2c[nH]c3ccccc23)C(=O)N1C [Example 1060] ({CH2CO}-F[NMeA]NP[Dap]L[Sar]WSW[NMeNle][NMeNle]RCG-NH2; thioether N-14)	4.78 to 72.9	6.76 to 30.3
CCCC[C@H]1C(=O)N(C)[C@@H](CCCC)C(=O)N[C@@H](CCCNC(=N)N)C(=O)N[C@H](C(=O)NCC(N)=O)CSCC(=O)N[C@@H](Cc2ccccc2)C(=O)N(C)[C@@H](C)C(=O)N[C@@H](CC(N)=O)C(=O)N2CCC[C@H]2C(=O)N[C@@H](Cc2cnc[nH]2)C(=O)N[C@@H](CC(C)C)C(=O)N(C)CC(=O)N[C@@H](Cc2c[nH]c3ccccc23)C(=O)N[C@H](C)C(=O)N[C@@H](Cc2c[nH]c3ccccc23)C(=O)N1C [Example 1061] ({CH2CO}-F[NMeA]NPHL[Sar]W[dA]W[NMeNle][NMeNle]RCG-NH2; thioether N-14)	> 74.3	> 30.5
CCCC[C@H]1C(=O)N(C)[C@@H](CCCC)C(=O)N[C@@H](CCCNC(=N)N)C(=O)N[C@H](C(=O)NCC(N)=O)CSCC(=O)N[C@@H](Cc2ccccc2)C(=O)N(C)[C@@H](C)C(=O)N[C@@H](CC(N)=O)C(=O)N2CCC[C@H]2C(=O)N[C@@H](CCN)C(=O)N[C@@H](CC(C)C)C(=O)N(C)CC(=O)N[C@@H](Cc2c[nH]c3ccccc23)C(=O)N[C@@H](CO)C(=O)N[C@@H](Cc2c[nH]c3ccccc23)C(=O)N1C [Example 1062] ({CH2CO}-F[NMeA]NP[Dab]L[Sar]WSW[NMeNle][NMeNle]RCG-NH2; thioether N-14)	4.78 to 72.9	6.76 to 30.3
CCCC[C@H]1C(=O)N(C)[C@@H](CCCC)C(=O)N[C@@H](CCCNC(=N)N)C(=O)N[C@H](C(=O)NCC(N)=O)CSCC(=O)N[C@@H](Cc2ccccc2)C(=O)N(C)[C@@H](C)C(=O)N[C@@H](CC(N)=O)C(=O)N2CCC[C@H]2C(=O)N[C@@H](CC(N)=O)C(=O)N[C@@H](CC(C)C)C(=O)N(C)CC(=O)N[C@@H](Cc2c[nH]c3ccccc23)C(=O)N[C@@H](CO)C(=O)N[C@@H](Cc2c[nH]c3ccccc23)C(=O)N1C [Example 1063] ({CH2CO}-F[NMeA]NPNL[Sar]WSW[NMeNle][NMeNle]RCG-NH2; thioether N-14)	> 74.3	> 30.5
CCCC[C@H]1C(=O)N(C)[C@@H](CCCC)C(=O)N[C@@H](CCCNC(=N)N)C(=O)N[C@H](C(=O)NCC(N)=O)CSCC(=O)N[C@@H](Cc2ccccc2)C(=O)N(C)[C@@H](C)C(=O)N[C@@H](CC(N)=O)C(=O)N2CCC[C@H]2C(=O)N[C@@H](CC(=O)O)C(=O)N[C@@H](CC(C)C)C(=O)N(C)CC(=O)N[C@@H](Cc2c[nH]c3ccccc23)C(=O)N[C@@H](CO)C(=O)N[C@@H](Cc2c[nH]c3ccccc23)C(=O)N1C [Example 1064] ({CH2CO}-F[NMeA]NPDL[Sar]WSW[NMeNle][NMeNle]RCG-NH2; thioether N-14)	> 74.3	> 30.5
CCCC[C@H]1C(=O)N(C)[C@@H](CCCC)C(=O)N[C@@H](CCCNC(=N)N)C(=O)N[C@H](C(=O)NCC(N)=O)CSCC(=O)N[C@@H](Cc2ccccc2)C(=O)N(C)[C@@H](C)C(=O)N[C@@H](CC(N)=O)C(=O)N2CCC[C@H]2C(=O)N[C@@H](Cc2cnc[nH]2)C(=O)N[C@@H](CC(C)C)C(=O)N(C)CC(=O)N[C@@H](Cc2c[nH]c3ccccc23)C(=O)N[C@H](CO)C(=O)N[C@@H](Cc2c[nH]c3ccccc23)C(=O)N1C [Example 1065] ({CH2CO}-F[NMeA]NPHL[Sar]W[dS]W[NMeNle][NMeNle]RCG-NH2; thioether N-14)	> 74.3	> 30.5
CCCC[C@H]1C(=O)N(C)[C@@H](CCCC)C(=O)N[C@@H](CCCNC(=N)N)C(=O)N[C@H](C(=O)NCC(N)=O)CSCC(=O)N[C@@H](Cc2ccccc2)C(=O)N(C)[C@@H](C)C(=O)N[C@@H](CC(N)=O)C(=O)N2CCC[C@H]2C(=O)N[C@@H](Cc2cncs2)C(=O)N[C@@H](CC(C)C)C(=O)N(C)CC(=O)N[C@@H](Cc2c[nH]c3ccccc23)C(=O)N[C@@H](CO)C(=O)N[C@@H](Cc2c[nH]c3ccccc23)C(=O)N1C [Example 1067] ({CH2CO}-F[NMeA]NP[Ala(thiazol-5-yl)]L[Sar]WSW[NMeNle][NMeNle]RCG-NH2; thioether N-14)	> 74.3	> 30.5
CCCC[C@H]1C(=O)N(C)[C@@H](CCCC)C(=O)N[C@@H](CCCNC(=N)N)C(=O)N[C@H](C(=O)NCC(N)=O)CSCC(=O)N[C@@H](Cc2ccccc2)C(=O)N(C)[C@@H](C)C(=O)N[C@@H](CC(N)=O)C(=O)N2CCC[C@H]2C(=O)N[C@@H](Cc2cnc[nH]2)C(=O)N[C@@H](CC(C)C)C(=O)N(C)CC(=O)N[C@@H](Cc2c[nH]c3ccccc23)C(=O)N[C@@H](Cc2cnc[nH]2)C(=O)N[C@@H](Cc2c[nH]c3ccccc23)C(=O)N1C [Example 1068] ({CH2CO}-F[NMeA]NPHL[Sar]WHW[NMeNle][NMeNle]RCG-NH2; thioether N-14)	> 74.3	> 30.5
CCCC[C@H]1C(=O)N(C)[C@@H](CCCC)C(=O)N[C@@H](CCCNC(=N)N)C(=O)N[C@H](C(=O)NCC(N)=O)CSCC(=O)N[C@@H](Cc2ccccc2)C(=O)N(C)[C@@H](C)C(=O)N[C@@H](CC(N)=O)C(=O)N2CCC[C@H]2C(=O)N[C@@H](Cc2cnc[nH]2)C(=O)N[C@@H](CC(C)C)C(=O)N(C)CC(=O)N[C@@H](Cc2c[nH]c3ccccc23)C(=O)N[C@@H](CCCCN)C(=O)N[C@@H](Cc2c[nH]c3ccccc23)C(=O)N1C [Example 1069] ({CH2CO}-F[NMeA]NPHL[Sar]WKW[NMeNle][NMeNle]RCG-NH2; thioether N-14)	4.78 to 72.9	0.385 to 6.74
CCCC[C@H]1C(=O)N(C)[C@@H](CCCC)C(=O)N[C@@H](CCCNC(=N)N)C(=O)N[C@H](C(=O)NCC(N)=O)CSCC(=O)N[C@@H](Cc2ccccc2)C(=O)N(C)[C@@H](C)C(=O)N[C@@H](CC(N)=O)C(=O)N2CCC[C@H]2C(=O)N[C@@H](Cc2cnc[nH]2)C(=O)N[C@@H](CC(C)C)C(=O)N(C)CC(=O)N[C@@H](Cc2c[nH]c3ccccc23)C(=O)N[C@@H](CCCN)C(=O)N[C@@H](Cc2c[nH]c3ccccc23)C(=O)N1C [Example 1070] ({CH2CO}-F[NMeA]NPHL[Sar]W[Orn]W[NMeNle][NMeNle]RCG-NH2; thioether N-14)	4.78 to 72.9	6.76 to 30.3

From US9850283B2, “Macrocyclic inhibitors of the PD-1/PD-L1 and CD80(B7-1)/PD-L1 protein/protein interactions” (BRISTOL-MYERS SQUIBB COMPANY, priority 2013, dated 2017)
